{"source": "patent US20090053138A1", "about": "“Stabilized Aptamers to Platelet Derived Growth Factor and their Use as Oncology Therapeutics” (priority 2002, published 2009)", "key": {"[1]": {"test_system": "LS174T colon cancer xenograft", "from_the_text": "Experimental overview. Human HT-29 or LS174T colon cancer xenotransplants were established in athymic nude mice (Nu/Nu mice, Charles River Labs, Wilmington, Mass.) by injecting mice with 1×10^7 HT29 cells (ATCC, Manassas, Va.), or 2×10^6 LS174T cells (ATCC Manassas, Va.) sub-cutaneously and allowing the tumors to grow for 5 days. On day 5, two dimensional measurements of the established tumors were taken using a digital caliper. Once tumor measurements were taken, the mice were randomized into groups such that the average tumor size was the same in each group. […]\nA third experiment (Experiment 3) was designed to test ARC308/irinotecan and GLEEVEC™/irinotecan dosing regimens in a colon cancer xenotransplant model using human colon carcinoma cell line LS174T (ATCC). […] ARC308 was dosed via intraperitoneal delivery at 50 mg/kg once daily, and GLEEVEC™ was dosed at 50 mg/kg once daily, Monday through Friday. ARC308 prevents PDGF-BB from binding the PDGF receptor; this molecule has a 30K PEG attached. […] The results are statistically significant (two tailed students T-test).\nAn efficacy analysis of three treatment groups in this study is shown in Table 10 in terms of log cell kill and log cell kill net. Log cell kill is the log(base10) of the number of tumor cells before treatment divided by the number of cells after treatment. […] A fourth experiment (Experiment 4) was designed to further test ARC308/irinotecan dosing regimens in a colon cancer xenotransplant model using human colon carcinoma cell line LS174T (ATCC). […]"}, "PDGF BB": {"biological_target": "PDGF BB (Homo sapiens, UniProt P01127)", "sequence (P01127 82-190 limits assumed)": "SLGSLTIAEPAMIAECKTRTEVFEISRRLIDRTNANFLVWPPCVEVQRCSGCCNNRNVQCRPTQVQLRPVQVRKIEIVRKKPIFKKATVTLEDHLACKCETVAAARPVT", "settings": "in vivo, iv, 10 mg/kg", "quoted_text": "As a secondary test of both the plasma pharmacokinetics and the in vivo bioactivity of ARC594 the competition binding assay was used to assay the same plasma samples used to generate the pharmacokinetic data. Serial 1:10 dilutions of plasma sample were prepared in phosphate-buffered saline (1×PBS) and mixed with a fixed concentration of ^32P-ARC594, then added to human PDGF-BB. The final concentration of PDGF in each assay was 0.1 nM, and the final concentration of ^32P-ARC594<0.1 nM. In this experiment, the plasma samples were analyzed by comparison with a standard curve generated with samples of known ARC594 concentrations in 1×PBS."}, "U87 glioblastoma cells": {"test_system": "U87 glioblastoma cells", "test": "Clonogenic growth assay", "format": "cell-based", "experimental": "U87 glioblastoma cells (ATCC) were grown in the presence or absence of mitogen as well as aptamer as shown in the panels. U87 cells were plated in DMEM/10% FBS to 50% confluency in 100 mm dishes. […] The addition of a final concentration of 50 ng/ml PDGF BB alone caused the appearance of highly connected three dimensional cell clusters. […] Thus, the aptamer blocks cell to cell adhesion of U87 cells which are known to have PDGF driven autocrine loops."}, "[2]": {"test": "Pharmacokinetics of ARC126 5′ PEG conjugates in mice", "text": "The pharmacokinetic (PK) data shown in FIG. 12A was subjected to non-compartmental analysis (NCA) using the industry-standard software package WinNonLin™ v.4.0 (Pharsight Corp., Mountain View, Calif.). […] The pharmacokinetic (PK) data shown in FIG. 12B was subjected to noncompartmental analysis (NCA) using the industry-standard software package WinNonLin™ v.4.0 (Pharsight Corp., Mountain View, Calif.).\nThe pharmacokinetic (PK) data shown in FIG. 12B was subjected to noncompartmental analysis (NCA) using the industry-standard software package WinNonLin™ v.4.0 (Pharsight Corp., Mountain View, Calif.)."}, "[3]": {"settings": "IV administration at 10 mg/kg in mice"}}, "note": "{PEG40k} = 40 kDa polyethylene glycol; [invdT] = inverted (3'-3') thymidine; [HEG] = hexaethylene glycol spacer", "data": [{"substance": "5′-[40 K PEG]-(SEQ ID NO:1)-HEG-(SEQ ID NO:2)-HEG-(SEQ ID NO:3)-3′-dT-3′ (chain 1 CAGGCUACG; chain 2 CGTAGAGCAUCA; chain 3 TGATCCUG; piece 1: 2'-fluoro at 6, 8, 2'-O-methyl at 9, 5' {PEG40k}, 3' [HEG], other sugars and backbone not given here; piece 2: 2'-O-methyl at 5, 7, 12, 2'-fluoro at 10, 11, 3' [HEG], other sugars and backbone not given here; piece 3: 2'-fluoro at 5, 6, 7, 2'-O-methyl at 8, 3' [invdT], other sugars and backbone not given here) [ARC127]", "values": [{"measurement": "efficacy of irinotecan (rate of tumor growth)", "setting": "[1]; Experiment 2: ARC127 50 mg/kg IP once daily + irinotecan 150 mg/kg weekly vs irinotecan alone", "result": "enhanced the efficacy of irinotecan treatment"}, {"measurement": "dose-limiting side effects", "setting": "[1]; in vivo experiments", "result": "not evident"}, {"measurement": "active aptamer in plasma", "setting": "PDGF BB", "result": "present and active"}, {"measurement": "proliferation rate of U87 cells (MTT assay)", "setting": "U87 glioblastoma cells", "result": "no effect on proliferation rate"}, {"measurement": "occurrence of three dimensional cell clusters", "setting": "U87 glioblastoma cells; 50 ng/ml PDGF-BB plus ARC127", "result": "reduced the occurrence of clusters to background level"}, {"measurement": "AUC", "setting": "[2]; IP, 10 mg/kg in mice", "result": 143605.5, "unit": "nM·h"}, {"measurement": "MRT", "setting": "[2]; IP, 10 mg/kg in mice", "result": 11.231, "unit": "h"}, {"measurement": "tmax", "setting": "[2]; IP, 10 mg/kg in mice", "result": 8, "unit": "h"}, {"measurement": "Cmax", "setting": "[2]; [3]", "result": 61, "unit": "µM"}, {"measurement": "MRT", "setting": "[2]; [3]", "result": 5.08, "unit": "h"}, {"measurement": "Vs", "setting": "[2]; [3]", "result": 0.0001, "unit": "L/kg"}, {"measurement": "AUC", "setting": "[2]; IV, 10 mg/kg in mice", "result": 229686.8, "unit": "nM·h"}, {"measurement": "MRT", "setting": "[2]; IV, 10 mg/kg in mice", "result": 6.573, "unit": "h"}, {"measurement": "tmax", "setting": "[2]; IV, 10 mg/kg in mice", "result": 2, "unit": "h"}, {"measurement": "plasma concentration at 24 hrs post-dose", "setting": "[2]; IV, IP or SC, 10 mg/kg in mice", "result": "~1"}, {"measurement": "AUC", "setting": "[2]; SC, 10 mg/kg in mice", "result": 55030.91, "unit": "nM·h"}, {"measurement": "MRT", "setting": "[2]; SC, 10 mg/kg in mice", "result": 16.632, "unit": "h"}, {"measurement": "tmax", "setting": "[2]; SC, 10 mg/kg in mice", "result": 8, "unit": "h"}, {"measurement": "systemic bioavailability, F", "setting": "[2]; intraperitoneal (IP), 10 mg/kg in mice", "result": "~63", "unit": "%"}, {"measurement": "systemic bioavailability, F", "setting": "[2]; subcutaneous (SC), 10 mg/kg in mice", "result": "~24", "unit": "%"}]}]}
